According to US20120214748A1, “NOVEL PEPTIDES, PROCESS FOR PREPARATION THEREOF, AND USE THEREOF” (priority 2009, published 2012):
Like-named read-outs stand apart in the source and are kept apart here. Bridge positions count the residues as written; N and C are the ends. Peptide text beside a SMILES is read from it.

Key:
MASP enzymes [1] = assay: Preliminary experiments: binding of SGCI to MASP enzymes
MASP enzymes [2] = assay: Preliminary experiments: inhibition of MASP enzymes by SGCI; type: biochemical
Trypsin = molecular target: T1, Trypsin (Bos taurus, UniProt P00760); assay: Trypsin inhibition on Z-L-Lys-SBzl substrate
T1 sequence (P00760 24-246): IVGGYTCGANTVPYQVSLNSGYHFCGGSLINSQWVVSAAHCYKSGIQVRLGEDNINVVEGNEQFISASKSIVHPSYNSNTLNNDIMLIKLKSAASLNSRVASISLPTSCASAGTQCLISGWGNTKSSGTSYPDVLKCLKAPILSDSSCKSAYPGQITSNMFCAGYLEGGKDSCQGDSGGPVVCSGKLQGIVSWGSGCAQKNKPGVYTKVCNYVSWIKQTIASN

[3] = test system: blood coagulation (thrombin operation); assay: Thrombin time (TT) in blood plasma; details: peptide 200 μM, FIG. 6.a
Description: (§1) We performed blood coagulation measurements using blood plasma taken from healthy individuals. From the blood obtained through venipuncture and treated with sodium citrate (3.8% wt/vol) the plasma was isolated by centrifugation (2000 g, 15 minutes, Jouan CR412 centrifuge).
(§2) Prothrombin time (PT) testing the extrinsic pathway of blood coagulation was measured on Sysmex® CA-500 (Sysmex, Japan) automatic system using Innovin® Reagent (Dale Behring, Marburg, Germany). Activated partial thromboplastin time (APTT) testing the intrinsic pathway of blood coagulation and thrombin time (TT) directly testing thrombin operation was measured on a Coag-A-Mate® MAX (BioMerieux, France) analyser using TriniClot™ reagent (Trinity Biotech, Wichlow, Ireland) and Reanal™ reagent (Reanal Finechemical, Hungary).
(§3) To examine the effects of peptides on blood coagulation we measured dose dependency, the results are shown on the graphs in FIG. 6. […] On the ordinates time is determined in seconds, while on the abscissas the logarithm of the inhibitor concentration is shown in μM.
(§4) FIG. 6.a illustrates an experiment for measuring thrombin time, in the course of which plasma coagulation (fibrin formation) is initiated by adding thrombin to the plasma. […] The members of this protease cascade are inhibited with peptide used in increasing concentrations (abscissa), and the time needed for coagulation is measured (ordinate).

[4] = test system: lectin pathway of the complement system; assay: WIELISA complement assay, lectin pathway; type: biochemical; details: serum, FIG. 7
Description: (§5) For measuring we used the so-called WIELISA kit (Euro-Diagnostica AB, COMPL300) developed for the selective measuring of the complement pathways, on the basis of the instructions for use attached to the kit. […] At the same time, the product detected during measuring is not a pathway-selective component, but the last element of the joint section of the activation pathways, the C5-9 complex.
(§6) The serum was diluted according to the prescriptions with the buffer belonging to the given complement pathway, it was incubated for 20 minutes at room temperature, the dilution sequence prepared from peptides was added to it, it was incubated for 20 minutes at room temperature, then it was pipetted into the appropriate wells of a special ELISA plate. In the following, washing, incubation and antibody addition was performed according to the instructions for use. It was incubated for 20 minutes with the substrate, and then the data was read at 450 nm in a spectrophotometer. A parallel belonged to each measuring point, 100% activity was represented by the serum without an inhibitor. The measurements were performed at the same time and on the same plate, from one single melted serum sample.

[5] = test system: extrinsic pathway of blood coagulation; assay: Prothrombin time (PT) in blood plasma; details: peptide 200 μM, FIG. 6.b
Description: as §1, §2, §3, §4

[6] = test system: intrinsic pathway of blood coagulation; assay: Activated partial thromboplastin time (APTT) in blood plasma; details: peptide 200 μM, FIG. 6.c
Description: as §1, §2, §3, §4

[7] = test system: classical pathway of the complement system; assay: WIELISA complement assay, classical pathway; type: biochemical; details: serum, FIG. 7
Description: as §5, §6

[8] = test system: alternative pathway of the complement system; assay: WIELISA complement assay, alternative pathway; type: biochemical; details: serum, FIG. 7
Description: as §5, §6

Thrombin = Thrombin (Homo sapiens, UniProt P00734); assay: Thrombin inhibition with Z-Gly-Pro-Arg-pNa substrate; type: biochemical
MASP-2 CCP1-CCP2-SP = molecular target: T2, MASP-2 CCP1-CCP2-SP (Homo sapiens, UniProt O00187); assay: Ki determination with synthetic substrate Z-L-Lys-SBzl on MASP-2; type: biochemical; details: NG = inhibition could not be measured even at the highest inhibitor concentration used
T2 construct: Human MASP-targets consist of a serine-protease (SP) domain and two complement control protein domains (CCP-1,-2); made in house
T2 sequence (O00187 445-686 limits assumed): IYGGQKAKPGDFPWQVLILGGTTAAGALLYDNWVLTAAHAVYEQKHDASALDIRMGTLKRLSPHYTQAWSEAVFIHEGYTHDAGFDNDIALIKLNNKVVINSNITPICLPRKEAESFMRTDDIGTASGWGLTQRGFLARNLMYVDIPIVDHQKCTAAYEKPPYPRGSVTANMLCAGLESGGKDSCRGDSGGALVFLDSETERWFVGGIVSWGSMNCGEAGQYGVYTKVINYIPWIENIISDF
T2 sequence (O00187 287-444 partner limits assumed): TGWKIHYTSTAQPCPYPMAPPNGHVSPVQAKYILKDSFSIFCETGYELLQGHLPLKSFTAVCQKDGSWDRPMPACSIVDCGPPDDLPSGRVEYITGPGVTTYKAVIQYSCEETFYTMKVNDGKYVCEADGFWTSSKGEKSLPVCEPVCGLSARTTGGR

MASP-1 CCP1-CCP2-SP = molecular target: T3, MASP-1 CCP1-CCP2-SP (Homo sapiens, UniProt P48740); assay: Ki determination with synthetic substrate Z-L-Lys-SBzl on MASP-1; type: biochemical
T3 construct: Human MASP-targets consist of a serine-protease (SP) domain and two complement control protein domains (CCP-1,-2); made in house
T3 sequence (P48740 449-699 limits assumed): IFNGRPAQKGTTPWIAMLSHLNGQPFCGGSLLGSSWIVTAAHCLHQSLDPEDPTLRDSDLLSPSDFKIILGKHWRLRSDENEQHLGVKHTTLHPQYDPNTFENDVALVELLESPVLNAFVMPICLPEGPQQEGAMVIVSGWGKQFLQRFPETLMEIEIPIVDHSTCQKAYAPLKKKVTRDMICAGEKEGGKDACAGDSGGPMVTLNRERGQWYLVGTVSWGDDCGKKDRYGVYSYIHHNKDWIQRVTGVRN
T3 sequence (P48740 298-448 partner limits assumed): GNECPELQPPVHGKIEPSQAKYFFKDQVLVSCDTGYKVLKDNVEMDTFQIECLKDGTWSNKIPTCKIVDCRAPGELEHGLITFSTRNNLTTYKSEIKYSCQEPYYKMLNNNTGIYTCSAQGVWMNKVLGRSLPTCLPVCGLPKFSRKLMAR

SGCI: Schistocerca Gregaria Chymotrypsin Inhibitor, chymotrypsin inhibitor molecule fused to the SFTI library for monovalent phage display (EVTCEPGTTFKDKCNTCRCGSDGKSAACTLKACPQ)
binding to MASP enzymes (MASP enzymes [1]): does not even bind to these enzymes | inhibition of MASP enzymes (MASP enzymes [2]): does not inhibit MASP enzymes

CC[C@H](C)[C@@H]1NC(=O)[C@@H]2CCCN2C(=O)[C@@H]2CCCN2C(=O)[C@H](CC(C)C)NC(=O)[C@H](CO)NC(=O)[C@H](CCCNC(=N)N)NC(=O)[C@H](CO)NC(=O)[C@@H](NC(=O)[C@@H](NC(=O)CN)C(C)C)CSSC[C@@H](C(=O)N[C@@H](Cc2c[nH]c3ccccc23)C(=O)N2CCC[C@H]2C(=O)N[C@@H](CC(=O)O)C(=O)O)NC1=O [M1-3E-Y12W] (H-GVCSRSLPPICWPD-OH; disulfide 3-11; N-terminus and C-terminus assumed)
Ki (Trypsin): 170 nM

CC[C@H](C)[C@H](NC(=O)[C@@H]1CSSC[C@H](NC(=O)[C@H](Cc2c[nH]c3ccccc23)NC(=O)CN)C(=O)N[C@@H](CO)C(=O)N[C@@H](CCCNC(=N)N)C(=O)N[C@@H](CO)C(=O)N[C@@H](Cc2ccc(O)cc2)C(=O)N2CCC[C@H]2C(=O)N2CCC[C@H]2C(=O)N[C@@H](C(C)C)C(=O)N1)C(=O)N1CCC[C@H]1C(=O)N[C@@H](CC(=O)O)C(=O)O [M2-6E-Y2W] (H-GWCSRSYPPVCIPD-OH; disulfide 3-11; N-terminus and C-terminus assumed)
Ki (Trypsin): 1700 nM

CC[C@H](C)[C@@H]1NC(=O)CNC(=O)[C@H](CC(=O)O)NC(=O)[C@@H]2CCCN2C(=O)[C@H]([C@@H](C)CC)NC(=O)[C@@H]2CSSC[C@H](NC1=O)C(=O)N[C@@H](CO)C(=O)N[C@@H](CCCNC(=N)N)C(=O)N[C@@H](CO)C(=O)N[C@@H](CC(C)C)C(=O)N1CCC[C@H]1C(=O)N1CCC[C@H]1C(=O)N[C@@H]([C@@H](C)CC)C(=O)N2 [M2-4G cyclic] (cyclo(CIPDGICSRSLPPI); disulfide 1-7)
Ki (Trypsin): 350 nM

CC[C@H](C)[C@H](NC(=O)CN)C(=O)N[C@H]1CSSC[C@@H](C(=O)N[C@H](C(=O)N2CCC[C@H]2C(=O)N[C@@H](CC(=O)O)C(=O)O)[C@@H](C)CC)NC(=O)[C@H]([C@@H](C)CC)NC(=O)[C@@H]2CCCN2C(=O)[C@@H]2CCCN2C(=O)[C@H](CC(C)C)NC(=O)[C@H](CO)NC(=O)[C@H](CCCNC(=N)N)NC(=O)[C@H](CO)NC1=O [M2-4G] (H-GICSRSLPPICIPD-OH; disulfide 3-11; N-terminus and C-terminus assumed)
thrombin time, effect on coagulation [3]: reached the extreme measuring value | inhibition of the lectin pathway (C5-9 complex) [4]: efficient and specific inhibitors of the lectin pathway | prothrombin time, effect on coagulation [5]: reached the extreme measuring value | Ki (Trypsin): 260 nM | trypsin inhibition compared to wild-type SFTI-1 (Trypsin): much weaker on trypsin than wild-type SFTI-1 | activated thromboplastin time, effect on coagulation [6]: reached the extreme measuring value | inhibition of the classical pathway (C5-9 complex) [7]: neither “S” peptide nor the “NS” peptide inhibited | inhibition of the alternative pathway (C5-9 complex) [8]: neither “S” peptide nor the “NS” peptide inhibited | thrombin inhibition (Thrombin): poor thrombin inhibitor | Ki (Thrombin; read-out: Ki value on thrombin): 10000 nM

CC[C@H](C)[C@H](NC(=O)[C@@H]1CSSC[C@H](NC(=O)[C@H](Cc2ccc(O)cc2)NC(=O)CN)C(=O)N[C@@H](CO)C(=O)N[C@@H](CCCNC(=N)N)C(=O)N[C@@H](CO)C(=O)N[C@@H]([C@@H](C)CC)C(=O)N2CCC[C@H]2C(=O)N2CCC[C@H]2C(=O)N[C@@H](C(C)C)C(=O)N1)C(=O)N1CCC[C@H]1C(=O)N[C@@H](CC(=O)O)C(=O)O [M2-6E-Y7I] (H-GYCSRSIPPVCIPD-OH; disulfide 3-11; N-terminus and C-terminus assumed)
Ki (Trypsin): 160 nM

CC[C@H](C)[C@H](NC(=O)[C@@H]1CSSC[C@H](NC(=O)[C@H](CCSC)NC(=O)CN)C(=O)N[C@@H](CO)C(=O)N[C@@H](CCCNC(=N)N)C(=O)N[C@@H](CO)C(=O)N[C@@H](Cc2ccc(O)cc2)C(=O)N2CCC[C@H]2C(=O)N2CCC[C@H]2C(=O)N[C@@H](C(C)C)C(=O)N1)C(=O)N1CCC[C@H]1C(=O)N[C@@H](CC(=O)O)C(=O)O [M2-6E-Y2M] (H-GMCSRSYPPVCIPD-OH; disulfide 3-11; N-terminus and C-terminus assumed)
Ki (Trypsin): 4000 nM

CC[C@H](C)[C@@H]1NC(=O)[C@@H]2CCCN2C(=O)[C@@H]2CCCN2C(=O)[C@H]([C@@H](C)CC)NC(=O)[C@H](CO)NC(=O)[C@H](CCCCN)NC(=O)[C@H]([C@@H](C)O)NC(=O)[C@@H](NC(=O)[C@H](CCCNC(=N)N)NC(=O)CN)CSSC[C@@H](C(=O)N[C@@H](Cc2ccccc2)C(=O)N2CCC[C@H]2C(=O)N[C@@H](CC(=O)O)C(=O)O)NC1=O [wild-type SFTI, reference compound]
Ki (Thrombin): 140000 nM

CC[C@H](C)[C@H](NC(=O)[C@@H]1CSSC[C@H](NC(=O)[C@H](Cc2ccc(O)cc2)NC(=O)CN)C(=O)N[C@@H](CO)C(=O)N[C@@H](CCCNC(=N)N)C(=O)N[C@@H](CO)C(=O)N[C@@H](Cc2ccc(O)cc2)C(=O)N2CCC[C@H]2C(=O)N2CCC[C@H]2C(=O)N[C@@H](C(C)C)C(=O)N1)C(=O)N1CCC[C@H]1C(=O)N[C@@H](CC(=O)O)C(=O)O [M2-6E] (H-GYCSRSYPPVCIPD-OH; disulfide 3-11; N-terminus and C-terminus assumed)
thrombin time, effect on coagulation [3]: remained near the normal range | Ki (MASP-2 CCP1-CCP2-SP): 180 nM | inhibition of the lectin pathway (C5-9 complex) [4]: efficient and specific inhibitors of the lectin pathway | activity on MASP-1 (MASP-1 CCP1-CCP2-SP): not active on MASP-1 | prothrombin time, effect on coagulation [5]: remained near the normal range | Ki (Trypsin): 1000 nM | activity on trypsin, lower by (Trypsin; compared with wild-type SFTI): 4 orders of magnitude | activated thromboplastin time, effect on coagulation [6]: remained near the normal range | inhibition of the classical pathway (C5-9 complex) [7]: neither “S” peptide nor the “NS” peptide inhibited | inhibition of the alternative pathway (C5-9 complex) [8]: neither “S” peptide nor the “NS” peptide inhibited | thrombin inhibition (Thrombin): very poor thrombin inhibitor | Ki (Thrombin; read-out: KI Thrombin): 550000 nM
